Earlier results, collected in patent publication US12239131B2, “Plant growth regulator concentrate and use thereof” (FINE AGROCHEMICALS LIMITED, priority 2018, dated 2025).

| pKa | Structure (SMILES) |
| --- | --- |
| 1.2 | CC1(C)C2CCC1(CS(=O)(=O)O)C(=O)C2 (stereo not drawn) [Camphor sulfonic acid] |
| 1.35 | CC(O)(P(=O)(O)O)P(=O)(O)O [HEDP, (1-hydroxyethane-1,1-diyl)bis(phosphonic acid)] |
| −1.4 | O=S(=O)(O)CCO [HESA, 2-hydroxyethyl sulphonic acid] |
